{"source": "patent US10400008B2", "about": "“Modulators of the SRC-kinase activity for preventing or treating metastatic cancer” (Cancer Research Technology Limited, priority 2013, dated 2019)", "key": {"[1]": {"system": "non-small cell lung tumor line xenografts", "details": "mice, reference 20; cited from earlier work"}, "[2]": {"system": "MMP-9", "assay": "MMP-9 release from HT1080 cells (fluorescent AK411 kit)", "type": "cell-based, human", "details": "6 h, Casodex 10 μM", "method": "(§1) FIG. 4: The S1 peptide inhibits EGF-stimulated migration and MMP-9 secretion in HT1080 cells. Quiescent HT1080 cells were used. In A, cells were left untreated or treated for 6 h with the indicated compounds. MMP-9 release was assayed as described in Methods. In B, cells were allowed to migrate for 6 h in Trans-well filters in the absence or presence of the indicated compounds. Migrated cells were stained and counted as reported in Methods. In A and B, data were expressed as relative increase. Mean and SEM is shown. n represents the number of experiments. In C, cells were wounded and then left unstimulated or stimulated for 6 h with the indicated compounds. Contrast-phase images are representative of 3 different experiments, each performed in duplicate.\n(§2) BrdU incorporation, migration and wound healing analysis were done as described (3, 11). MMP-9 activity was assayed (12, 13), using the fluorescent AK411 kit (BIOMOL Res. Lab.)."}, "[3]": {"biological_target": "T1, Src (Homo sapiens, UniProt P12931)", "T1 construct": "lysates were immune-precipitated with the anti-Src MAb and Src activity in immune-complexes was assayed using enolase as a substrate; endogenous in cells; host or cells: HT1080 human fibrosarcoma cells", "T1 sequence (P12931 whole entry)": "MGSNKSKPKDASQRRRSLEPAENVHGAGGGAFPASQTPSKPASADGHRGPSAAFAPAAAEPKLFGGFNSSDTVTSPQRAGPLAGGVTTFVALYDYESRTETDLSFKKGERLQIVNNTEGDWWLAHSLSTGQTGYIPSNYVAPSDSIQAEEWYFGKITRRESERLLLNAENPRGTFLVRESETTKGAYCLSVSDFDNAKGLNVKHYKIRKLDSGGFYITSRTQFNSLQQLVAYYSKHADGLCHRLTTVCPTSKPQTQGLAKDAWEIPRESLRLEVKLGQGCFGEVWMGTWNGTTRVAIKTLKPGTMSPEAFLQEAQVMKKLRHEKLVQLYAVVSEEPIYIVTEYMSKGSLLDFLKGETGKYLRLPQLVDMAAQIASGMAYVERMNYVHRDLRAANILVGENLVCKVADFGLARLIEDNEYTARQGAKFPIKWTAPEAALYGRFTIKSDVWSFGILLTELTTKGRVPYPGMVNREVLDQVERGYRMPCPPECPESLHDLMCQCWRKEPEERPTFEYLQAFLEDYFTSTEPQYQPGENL", "assay": "Src kinase assay in immune-complexes with enolase as substrate, EGF-stimulated HT1080 cells", "type": "cell-based", "details": "EGF 100 ng/ml, 10 μM Casodex, compared with 1 nM S1 peptide", "method": "FIG. 3: Inhibition by S1 peptide of AR/Src complex, Src activation and DNA synthesis triggered by EGF in HT1080 cells. Quiescent HT1080 cells were used. The cells were left un-stimulated or stimulated for 10 min with EGF (at 100 ng/ml; Roche) in the absence or presence of S1 or Ss peptide (both at 1 nM). Casodex (at 10 μM) was used for comparison with the S1 peptide. The same concentrations of peptides and Casodex were used throughout the experiments. Upper section in A, the Western blot of HT1080 cell lysates with anti-EGFR antibody is shown. […] Lower section in A, lysates were immune-precipitated with anti EGFR Ab and proteins in immune-complexes were detected using antibodies against the indicated proteins. In B, lysates were immune-precipitated with the anti-Src MAb and Src activity in immune-complexes was assayed using enolase as a substrate. In C, cells on coverslips were left untreated or treated for 18 h with the indicated compounds. After in vivo pulse with BrdU (100 μM; Sigma), BrdU incorporation was analyzed by IF and expressed as % of total nuclei. Mean and SEM are shown. n represents the number of experiments.\nSrc tyrosine kinase was immune-precipitated, detected and assayed using enolase as a substrate (15). Src, EGF-R and tubulin were detected from cell lysates using appropriate antibodies (7). AR was immune-precipitated and detected as reported (3). […]"}, "[4]": {"system": "HT1080 cells", "assay": "Migration in Trans-well filters and wound healing of HT1080 cells", "type": "cell-based, human", "details": "6 h, Casodex 10 μM", "method": "as §1, §2"}, "[5]": {"system": "HT1080 cell xenografts", "assay": "HT1080 xenografts in nude male mice, tumor mass", "type": "in vivo", "details": "200 μl of 1 μM Casodex i.p. at alternate days, 4 weeks, vs vehicle", "method": "FIG. 1: Casodex reduces the growth of human fibrosarcoma HT1080 xenografts. HT1080 xenografts were established in nude male mice as described in Methods. Tumors were treated with vehicle alone (ethanol), or the pure androgen antagonist, Casodex (Cx; at 1 μM; Sigma-Aldrich). Tumor mass was measured at the indicated times. Mean and SEM are shown. n represents the number of experiments.\n(§3) HT1080 cells in 50% (v/v) Matrigel solution in phosphate-buffered saline (PBS; pH 7.4) were subcutaneously injected in the dorsal posterior region at 2.5×10^6 cells/male athymic mice (CD mice, Charles-River Italia) without hormone priming. Animals were randomly selected for the treatment with Casodex dissolved in 0.1% ethanol or vehicle alone for additional 4 weeks. Tumour volumes of HT1080 cell xeno-grafts were measured by a calliper and expressed as tumour mass (mm^3). For the treatment of each animal, 200 μl of 1 μM Casodex in 0.1% ethanol or the same amount of vehicle alone were intra-peritoneally administered at alternate days to the mice. No difference in body weight was detected between control mice or Casodex-treated mice."}, "[6]": {"assay": "Body weight of HT1080 xenograft mice", "type": "in vivo", "details": "Casodex-treated vs control mice", "method": "as §3"}, "[7]": {"system": "HT1080 cells", "assay": "BrdU incorporation (DNA synthesis) in HT1080 cells", "type": "cell-based, human", "details": "EGF, Casodex 10 μM", "method": "Androgen challenging of these cells neither induces AR nuclear translocation, nor enhances DNA synthesis while robustly increases cell motility. In A, quiescent HT1080 cells were transfected with 3416 or 3424 ARE-luc constructs with or without hAR expressing plasmid. Details of these procedures have been described in Methods. Cells were left un-stimulated or stimulated for 18 h with 10 nM R1881. The luciferase activity was assayed, normalized using beta-gal as an internal control, and expressed as fold induction. Means and SEM are shown; n represents the number of experiments. […] In B, quiescent HT1080 cells on coverslips were left untreated or treated for 60 min with 10 nM R1881. Cells were analysed by IF for AR (left images) or Hoechst (right images). Images are representative of three independent experiments. […] In C, BrdU incorporation in cells on coverslips was analysed and expressed as in FIG. 2. In D, the number of migrated cells was evaluated and expressed as relative increase. […]\nFIG. 3: Inhibition by S1 peptide of AR/Src complex, Src activation and DNA synthesis triggered by EGF in HT1080 cells. […] Lower section in A, lysates were immune-precipitated with anti EGFR Ab and proteins in immune-complexes were detected using antibodies against the indicated proteins. […] After in vivo pulse with BrdU (100 μM; Sigma), BrdU incorporation was analyzed by IF and expressed as % of total nuclei. […]"}, "[8]": {"biological_target": "T2, EGF receptor (EGFR) (human, UniProt P00533 25-1210)", "T2 construct": "Endogenous protein of HT1080 cells", "assay": "immune-precipitation with anti-EGFR antibody from EGF-stimulated HT1080 lysates, immunoblot", "method": "Quiescent HT1080 cells were used. […] The same concentrations of peptides and Casodex were used throughout the experiments. […] In C, cells on coverslips were left untreated or treated for 18 h with the indicated compounds. After in vivo pulse with BrdU (100 μM; Sigma), BrdU incorporation was analyzed by IF and expressed as % of total nuclei. Mean and SEM are shown. n represents the number of experiments.\nThe ECL system (GE Healthcare) was used to reveal immune-reactive proteins."}}, "data": [{"molecule": "C[C@]12CC[C@@H]3c4ccc(O)cc4C[C@@H](CCCCCCCCC[S+]([O-])CCCC(F)(F)C(F)(F)F)[C@H]3[C@@H]1CC[C@@H]2O", "note": "(some centres unmarked) [ICI 182,780]", "values": [{"measurement": "estrogen-stimulated growth of non-small cell lung tumor line xenografts", "setting": "[1]", "result": "blocks"}]}, {"molecule": "CC(O)(CS(=O)(=O)c1ccc(F)cc1)C(=O)Nc1ccc(C#N)c(C(F)(F)F)c1", "note": "(centres unmarked) [Casodex, reference compound]", "values": [{"measurement": "EGF-stimulated MMP-9 secretion", "setting": "[2]", "result": "inhibits"}, {"measurement": "EGF stimulation of Src activity", "setting": "[3]", "result": "comparable"}, {"measurement": "EGF-increased motility", "setting": "[4]", "result": "inhibited at a similar extent"}, {"measurement": "growth (tumor mass) of HT1080 xenografts", "setting": "[5]", "result": "reduced"}, {"measurement": "body weight", "setting": "[6]", "result": "No difference"}, {"measurement": "EGF mitogenic effect (DNA synthesis)", "setting": "[7]", "result": "abolishes"}]}, {"molecule": "androgen receptor (AR) (receptor, human, UniProt P10275 1-920, looked up, Endogenous protein of HT1080 cells (co-immunoprecipitation from lysates)) MEVQLGLGRVYPRPPSKTYRGAFQNLFQSVREVIQNPGPRHPEAASAAPPGASLLLLQQQQQQQQQQQQQQQQQQQQQQQETSPRQQQQQQGEDGSPQAHRRGPTGYLVLDEEQQPSQPQSALECHPERGCVPEPGAAVAASKGLPQQLPAPPDEDDSAAPSTLSLLGPTFPGLSSCSADLKDILSEASTMQLLQQQQQEAVSEGSSSGRAREASGAPTSSKDNYLGGTSTISDNAKELCKAVSVSMGLGVEALEHLSPGEQLRGDCMYAPLLGVPPAVRPTPCAPLAECKGSLLDDSAGKSTEDTAEYSPFKGGYTKGLEGESLGCSGSAAAGSSGTLELPSTLSLYKSGALDEAAAYQSRDYYNFPLALAGPPPPPPPPHPHARIKLENPLDYGSAWAAAAAQCRYGDLASLHGAGAAGPGSGSPSAAASSSWHTLFTAEEGQLYGPCGGGGGGGGGGGGGGGGGGGGGGGEAGAVAPYGYTRPPQGLAGQESDFTAPDVWYPGGMVSRVPYPSPTCVKSEMGPWMDSYSGPYGDMRLETARDHVLPIDYYFPPQKTCLICGDEASGCHYGALTCGSCKVFFKRAAEGKQKYLCASRNDCTIDKFRRKNCPSCRLRKCYEAGMTLGARKLKKLGNLKLQEEGEASSTTSPTEETTQKLTVSHIEGYECQPIFLNVLEAIEPGVVCAGHDNNQPDSFAALLSSLNELGERQLVHVVKWAKALPGFRNLHVDDQMAVIQYSWMGLMVFAMGWRSFTNVNSRMLYFAPDLVFNEYRMHKSRMYSQCVRMRHLSQEFGWLQITPQEFLCMKALLLFSIIPVDGLKNQKFFDELRMNYIKELDRIIACKRKNPTSCSRRFYQLTKLLDSVQPIARELHQFTFDLLIKSHMVSVDFPEMMAEIISVQVPKILSGKVKPIYFHTQ", "values": [{"measurement": "binding result", "setting": "[8]", "result": "binds"}]}]}
